Measured values as given in ChEMBL document CHEMBL1201862, “PubChem BioAssay data set” (2004).
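How tested: cells in 96-well plates exposed to compound for 48 hours at five concentrations. The concentration for 50% growth inhibition is given as GI50.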 Calls of active or inactive are those of the source. Cut-off read from the data, not from the text of the source: active = GI50 up to about 1.1 µM and inactive = higher.

Columns and labels:
Assay in all cases: inhibition of tumour cell growth, NCI panel, 48 h
[1] = tested on: SNB-19
[2] = tested on: BT-549
[3] = tested on: HT-29
[4] = tested on: EKVX
[5] = tested on: ACHN
[6] = tested on: SK-MEL-2
[7] = tested on: MDA-MB-435
[8] = tested on: HOP-92
[9] = tested on: MDA-MB-231
[10] = tested on: NCI-H23
[11] = tested on: HCC 2998
[12] = tested on: LOX IMVI
[13] = tested on: CAKI-1
[14] = tested on: IGROV-1
[15] = tested on: M14
[16] = tested on: SF-539
[17] = tested on: KM12
[18] = tested on: SK-MEL-5
[19] = tested on: HOP-62
[20] = tested on: HCT-15
[21] = tested on: UACC-257
[22] = tested on: DU-145
[23] = tested on: SR
[24] = tested on: HCT-116
[25] = tested on: U-251
[26] = tested on: Hs-578T
[27] = tested on: UO-31
[28] = tested on: TK-10
[29] = tested on: OVCAR-3
[30] = tested on: SN12C
[31] = tested on: PC-3
[32] = tested on: RPMI-8226
[33] = tested on: MCF7
[34] = tested on: Malme-3M
[35] = tested on: NCI-H522
[36] = tested on: SF-295
[37] = tested on: K562
[38] = tested on: SW-620
[39] = tested on: MOLT-4
[40] = tested on: SF-268
[41] = tested on: A549
[42] = tested on: UACC-62
[43] = tested on: 786-0
[44] = tested on: SK-MEL-28
[45] = tested on: SNB-75
[46] = tested on: NCI/ADR-RES
[47] = tested on: RXF 393
[48] = tested on: COLO 205
[49] = tested on: OVCAR-8
[50] = tested on: OVCAR-4
[51] = tested on: MDA-N
[52] = tested on: NCI-H460
[53] = tested on: OVCAR-5
[54] = tested on: CCRF-CEM
[55] = tested on: SK-OV-3
[56] = tested on: NCI-H226
[57] = tested on: A498
[58] = tested on: HL-60

CC(C)(C)n1c(=O)n2n(c1=O)Cc1cccc3cccc(c13)C2
GI50 [1]: 25.6 µM (inactive)
GI50 [2]: 31.8 µM (inactive)
GI50 [3]: 16.7 µM (inactive)
GI50 [4]: 15 µM (inactive)
GI50 [5]: 20.6 µM (inactive)
GI50 [6]: 17.9 µM (inactive)
GI50 [7]: 23.7 µM (inactive)
GI50 [8]: 28.1 µM (inactive)
GI50 [9]: 32.6 µM (inactive)
GI50 [10]: 25.6 µM (inactive)
GI50 [11]: 21.9 µM (inactive)
GI50 [12]: 23.8 µM (inactive)
GI50 [13]: 15.1 µM (inactive)
GI50 [14]: 11.3 µM (inactive)
GI50 [15]: 18.4 µM (inactive)
GI50 [16]: 17.2 µM (inactive)
GI50 [17]: 14.7 µM (inactive)
GI50 [18]: 19.5 µM (inactive)
GI50 [19]: 14 µM (inactive)
GI50 [20]: 18.5 µM
GI50 [21]: 22.6 µM (inactive)
GI50 [22]: 35.5 µM (inactive)
GI50 [23]: 6.7 µM (inactive)
GI50 [24]: 15.1 µM (inactive)
GI50 [25]: 15.3 µM (inactive)
GI50 [26]: 12.2 µM (inactive)
GI50 [27]: 22.1 µM (inactive)
GI50 [28]: 29.1 µM (inactive)
GI50 [29]: 15.4 µM (inactive)
GI50 [30]: 19.3 µM (inactive)
GI50 [31]: 13 µM (inactive)
GI50 [32]: 14 µM (inactive)
GI50 [33]: 22.8 µM (inactive)
GI50 [34]: 14.2 µM (inactive)
GI50 [35]: 2.99 µM (inactive)
GI50 [36]: 17 µM (inactive)
GI50 [37]: 10.3 µM (inactive)
GI50 [38]: 17 µM (inactive)
GI50 [39]: 14.8 µM (inactive)
GI50 [40]: 14.5 µM (inactive)
GI50 [41]: 26.7 µM (inactive)
GI50 [42]: 24 µM (inactive)
GI50 [43]: 19.5 µM (inactive)
GI50 [44]: 21.7 µM (inactive)
GI50 [45]: 0.834 µM (active)
GI50 [46]: 14.4 µM (inactive)
GI50 [47]: 13.9 µM (inactive)
GI50 [48]: 29.5 µM (inactive)
GI50 [49]: 17.8 µM (inactive)
GI50 [50]: 19.6 µM (inactive)
GI50 [51]: 22.1 µM (inactive)
GI50 [52]: 10.7 µM (inactive)
GI50 [53]: 17 µM (inactive)
GI50 [54]: 4.31 µM (inactive)
GI50 [55]: 27.1 µM (inactive)

Cc1ccc2c3c1O[C@H]1c4[nH]c5ccccc5c4C[C@@]4(O)[C@@H](C2)N(C)CC[C@]314
GI50 [1]: 17.9 µM (inactive)
GI50 [2]: 16.4 µM (inactive)
GI50 [3]: 11.5 µM (inactive)
GI50 [5]: 15.9 µM (inactive)
GI50 [56]: 9.04 µM (inactive)
GI50 [6]: 20.7 µM (inactive)
GI50 [7]: 14.5 µM (inactive)
GI50 [8]: 9.08 µM (inactive)
GI50 [9]: 15.2 µM (inactive)
GI50 [10]: 18.4 µM (inactive)
GI50 [12]: 15.4 µM (inactive)
GI50 [57]: 17 µM (inactive)
GI50 [13]: 17.3 µM (inactive)
GI50 [14]: 18 µM (inactive)
GI50 [15]: 16.2 µM (inactive)
GI50 [16]: 15.7 µM (inactive)
GI50 [17]: 16.9 µM (inactive)
GI50 [58]: 14.6 µM (inactive)
GI50 [18]: 14.5 µM (inactive)
GI50 [20]: 17.2 µM
GI50 [21]: 13.7 µM (inactive)
GI50 [22]: 19.8 µM (inactive)
GI50 [23]: 13.7 µM (inactive)
GI50 [24]: 16.6 µM (inactive)
GI50 [25]: 16 µM (inactive)
GI50 [26]: 0.474 µM (active)
GI50 [27]: 13.7 µM (inactive)
GI50 [30]: 18.2 µM (inactive)
GI50 [31]: 17.3 µM (inactive)
GI50 [32]: 14.1 µM (inactive)
GI50 [33]: 16 µM (inactive)
GI50 [34]: 13.9 µM (inactive)
GI50 [35]: 19.1 µM (inactive)
GI50 [37]: 16.9 µM (inactive)
GI50 [38]: 15 µM (inactive)
GI50 [39]: 16.4 µM (inactive)
GI50 [40]: 17.1 µM (inactive)
GI50 [41]: 17 µM (inactive)
GI50 [42]: 16.6 µM (inactive)
GI50 [43]: 15.6 µM (inactive)
GI50 [46]: 17.8 µM (inactive)
GI50 [47]: 10.1 µM (inactive)
GI50 [48]: 14.4 µM (inactive)
GI50 [49]: 18.6 µM (inactive)
GI50 [50]: 16.9 µM (inactive)
GI50 [51]: 17.8 µM (inactive)
GI50 [53]: 20.7 µM (inactive)
GI50 [54]: 18.3 µM (inactive)
